Several values for one entry are separate records, joined by “and”; a condition that tells them apart may be missing. Equal values may be shown once. Entries after “also recorded” stand apart in the source; their conditions may differ.
Tests used:
[1] = cited from earlier work
[2] = tested on: unstimulated human lymphocytes; experiment: [3H]LXA4 uptake into lymphocytes; assay type: cell-based; settings: Medium, 5 nM, 1-30 min
Description: Lymphocvtes: The lymphocyte-rich interface layer was taken at the Ficoll-Hypaque gradient step of the neutrophil purification procedure. Platelets were removed by slow-speed centrifugation (see below) and contaminating monocytes and neutrophils by adherence to plastic Petri dishes for 1 hour at 37 ° C.
(§1) Human red cells, lymphocytes, and platelets were isolated from peripheral blood as described under Methods. Undifferentiated HL-60 cells were grown in culture according to standard protocols. Differentiated HL-60 cells were obtained by exposing cells to 1 μM retinoic acid for 5 days in culture. After harvesting and isolation, all cells were kept in the standard medium for 1 hour at 37° C. prior to assay. […] Results represent the means±SEM of three-four separate experiments for each cell type.

[3] = tested on: renal vasoconstrictor actions of LTD4; settings: prior exposure, nM; cited from earlier work
protein kinase C (PKC) = settings: about 10 nM; cited from earlier work
neutrophils [4] = experiment: Phagocytosis of opsonized sheep red blood cells by neutrophils; assay type: cell-based, human; settings: for effect on neutrophil phagocytosis, phagocytic index: 100 nM or 1000 nM, pH 7.4, 37° C., 30 minutes
Description: Neutrophils were prepared as described in the general methodology and suspended at a concentration of 10×10^6 -15×10^6 cells/ml in Hepes Hanks buffer, pH 7.4, supplemented with 1 mg/ml BSA, 1 mg/ml glucose, 0.5 mM MgCl2 and 1.0 mM CaCl2 --2H2 O.
The sheep red blood cells (SRBCs) were prepared by washing the cells with 1× veronal-buffered saline (VBS), incubating the cells with a 1:500 dilution of rabbit anti-SRBC IgG antibody at 37° C. for 15 minutes, centrifuging the cells at 2000 rpm for 5 minutes at 4° C. and washing the cells twice with 1×VBS. SRBCs were resuspended at a final concentration of 10×10^8 cells/ml.
Each component was pipetted separately to the bottom of a 12×75 mm test tube to allow thorough mixing of the components.
To each 100 μl mixture was added 15 μl of opsonized SRBCs to start the phagocytosis reaction. The tubes were vortexed and placed in a 37° C. incubator for 30 minutes. After 30 minutes, the tubes were placed on ice to stop the reaction.
Non-phagocytosed SRBCs were lysed by adding 1.0 ml of 0.83% NH4 Cl to each tube, with shaking, and centrifuging the tubes quickly at 1500 rpm for 3 minutes. The supernatant was removed and the pellets were resuspended in 30 gl of PBS. The 30 μl solution was placed onto a polylysine-coated microscope slide and after 15 minutes the excess solution was removed from the slide. The cells on the slide were fixed with 1% glutaraldehyde for 5 minutes and then the excess glutaraldehyde was removed. The cells were stained with Giemsa Stain by immersing the slide in the stain for 25 minutes, rinsing the slide with water and allowing the slide to dry overnight.
The slides were examined with a light microscope at 100×power. SRBCs which were phagocytosed by neutrophils were visible as yellow cells within blue-stained neutrophils. The results for each reaction were expressed as a phagocytic index, representing the number of SRBCs phagocytosed per 100 neutrophils. […]

[5] = tested on: undifferentiated HL-60 cells; experiment: [3H]LXA4 uptake into undifferentiated HL-60 cells; assay type: cell-based, human; settings: Medium, 5 nM, 1-30 min
Description: (§2) HL-60 Cells: HL-60 cells were seeded into RPMI medium supplemented with 100 U/ml penicillin, 100 μg/ml streptomycin, and 10% fetal calf serum (Hyclone, Logan, Utah) and grown at 37° C. in 250 ml flasks in a 5% CO2 /95% air atmosphere. Cells were induced to differentiate toward a neutrophil-like phenotype by exposure to 1 μM retinoic acid for 5 days.
as §1

[6] = tested on: myeloid bone marrow colony formation; settings: 10^-10 M range, with suboptimal GM-CSF; cited from earlier work
lipoxin transport system [7] = experiment: [3H]LXA4 influx into human neutrophils (unidirectional tracer flux)
[8] = tested on: LTD4- and LTB4-mediated inflammation; settings: in vivo; cited from earlier work
[9] = target: T1, specific lipoxin receptors (Homo sapiens, UniProt P25090); settings: 4° C.; cited from earlier work
T1 sequence (P25090 1-351): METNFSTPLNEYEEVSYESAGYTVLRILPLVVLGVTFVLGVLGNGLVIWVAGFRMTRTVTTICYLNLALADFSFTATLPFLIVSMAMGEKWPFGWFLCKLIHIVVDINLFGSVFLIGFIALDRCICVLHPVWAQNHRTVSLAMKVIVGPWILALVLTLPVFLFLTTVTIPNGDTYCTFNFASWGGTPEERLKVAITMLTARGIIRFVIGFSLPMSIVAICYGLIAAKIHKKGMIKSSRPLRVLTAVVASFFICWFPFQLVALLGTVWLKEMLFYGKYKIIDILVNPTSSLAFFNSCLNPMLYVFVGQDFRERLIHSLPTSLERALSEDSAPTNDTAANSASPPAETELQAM

[10] = tested on: human mononuclear cell-colony formation; settings: cited from earlier work
[11] = tested on: unstimulated human platelets; experiment: [3H]LXA4 uptake into platelets; assay type: cell-based; settings: Medium, 5 nM, 1-30 min
Description: Platelets: Platelets were purified to homogeneity from acid citrate dextrose-treated blood according to established protocols (Romano, M. and Serhan, C. N. (1992) Biochemistry 31:8269-8277).
as §1

human neutrophils = settings: not told
[12] = tested on: retinoic acid-induced HL-60 cells; experiment: [3H]LXA4 uptake into retinoic acid-induced HL-60 cells; assay type: cell-based, human; settings: Medium, 5 nM, 1-30 min
Description: as §2, §1

asthmatic patients = settings: micromolar amounts via inhalation; cited from earlier work
[13] = target: T1, specific lipoxin receptors; experiment: [3H]LXA4 ligand binding to human neutrophils
Description: Influx rates were calculated by fitting the data points to a single exponential equation (Eq. 1). Results have been taken from three experiments based upon duplicate determinations. […] Specific binding was taken as the difference between total and non-specific binding. […] Results are from three separate experiments, each performed in triplicate.

neutrophils [14] = settings: 37° C.; cited from earlier work
[15] = tested on: unstimulated human erythrocytes; experiment: [3H]LXA4 uptake into erythrocytes; assay type: cell-based; settings: Medium, 5 nM, 1-30 min
Description: Red Blood Cells (RBC): RBC were obtained directly from the heparinized blood of normal human donors. During repeated (four) washing steps, the uppermost portion of the cell pellets was aspirated and discarded to remove residual minor contamination of buffy coat cells.
as §1

[16] = nM levels; cited from earlier work
[17] = RP-HPLC analysis of LXA4 integrity after exposure to inhibitors; assay type: physicochemical; settings: 30 min of exposure
[18] = tested on: polymorphonuclear leukocytes; settings: cited from earlier work
[19] = tested on: H+ +lactate- cotransporter; settings: cited from earlier work
Cl-/HCO3- exchanger = settings: cited from earlier work
lipoxin transport system [20] = experiment: Irreversible inhibition of [3H]LXA4 influx after pretreatment of neutrophils with sulfhydryl-reactive agents; assay type: cell-based, human
[21] = combined data: Control, 0.4 mM SITS, 1 mM probenecid, Na+-free medium, high K+ medium, 5 nM LXA4

CCCCC[C@H](O)/C=C/C=C\C=C\C=C\[C@@H](O)[C@@H](O)CCCC(=O)O [LXA4, (5S,6R,15S)-trihydroxy-7,9,13-trans-11-cis-eicosatetraenoic acid]
pK' of the carboxylic acid moiety [1]: ~ 3.8
[3H]LXA4 Uptake Rate [2]: 0.0019 ± 0.0048 fmol/10^6 cells/min
renal vasoconstriction by LTD4 [3]: blocks renal vasoconstrictor actions
effect on PKC activity (protein kinase C (PKC)): enhance
effect on neutrophil phagocytosis, phagocytic index (neutrophils [4]): more effective at inhibiting phagocytosis than LXB4; also recorded: inhibit phagocytosis
pH-dependence of inhibition of neutrophil phagocytosis (neutrophils [4]; extracellular pH 6.4, 7.4, 8.4): increases as the extracellular pH is decreased
[3H]LXA4 Uptake Rate [5]: 0.11 ± 0.02 fmol/10^6 cells/min
cell proliferation / colony formation [6]: stimulates cell proliferation
final [3H]LXA4 uptake (combined data) (lipoxin transport system [7]; [21]): 7.26±0.26 fmol/10^6 cells
initial [3H]LXA4 influx rate (combined data) (lipoxin transport system [7]; [21]): 0.57±0.09 fmol/10^6 cells/min
leukotriene-mediated inflammation [8]: inhibits
binding sites [9]: ~ 1830 sites/cell
half-time for binding [9]: .15 s
mononuclear cell-colony formation [10]: stimulates
[3H]LXA4 Uptake Rate [11]: -0.0003 ± 0.0015 fmol/10^6 cells/min
efflux final value (relative cell content) (human neutrophils): 0.54±0.03
[3H]LXA4 Uptake Rate [12]: 0.73 ± 0.15 fmol/10^6 cells/min
bronchoconstriction (asthmatic patients): blocks bronchoconstriction
[3H]LXA4 Binding, total ([13]; Medium, 0.3 nM [3H]LXA4, 4° C., 5 min, no unlabeled LXA4): 1.05 ± 0.03 fmol/10^6 cells
[3H]LXA4 Binding, non-specific ([13]; Medium, + unlabeled LXA4 0.3 μM): 0.40 ± 0.08 fmol/10^6 cells
specific binding as share of total binding ([13]; displaced by 1,000-fold excess unlabeled LXA4): ~ 70%
[3H]LXA4 Binding, non-specific ([13]; pHo 6.40, + unlabeled LXA4 0.3 μM): 0.39 ± 0.04 fmol/10^6 cells
[3H]LXA4 Binding, total ([13]; pHo 6.40, no unlabeled LXA4): 1.02 ± 0.09 fmol/10^6 cells
[3H]LXA4 Binding, non-specific ([13]; pHo 8.40, + unlabeled LXA4 0.3 μM): 0.42 ± 0.09 fmol/10^6 cells
[3H]LXA4 Binding, total ([13]; pHo 8.40, no unlabeled LXA4): 1.19 ± 0.12 fmol/10^6 cells
metabolic transformation in neutrophils (neutrophils [14]): not subject to metabolic transformation
[3H]LXA4 Uptake Rate [15]: 0.0014 ± 0.0006 fmol/10^6 cells/min
vasodilation [16]: elicit prompt vasodilation
integrity after exposure to DISA, PCP, UK-5099, and mersalyl [17]: preservation of the integrity
chemotaxis [18]: inhibits chemotaxis

CCCCC[C@H](O)[C@H](O)/C=C/C=C/C=C\C=C\[C@@H](O)CCCC(=O)O [LXB4, lipoxin B4]
effect on PKC activity (protein kinase C (PKC)): enhance
effect on neutrophil phagocytosis, phagocytic index (neutrophils [4]): inhibit phagocytosis
vasodilation [16]: elicit prompt vasodilation

CCN1C(=O)C=CC1=O [NEM, N-ethylmaleimide]
effect of SH-reactive compounds on [3H]LXA4 influx (lipoxin transport system [7]; 1 mM NEM, 0.4 mM iodoacetate): lacked efficacy; also recorded: do not inhibit
effect on H+ +lactate- cotransport / lactic acid fluxes [19]: completely blocked

O=C(O)c1cc[c]([Hg+])cc1.[OH-] [pHMB, p-hydroxymercuribenzoate]
effect on Cl-/HCO3- exchange (Cl-/HCO3- exchanger): resistant
% Inhibition of Transport (irreversible) (lipoxin transport system [20]): ~ 65% and 66 ± 4%
effect on binding of lipoxin to specific receptors [13]: not inhibitable
